The values below come from patent US8063018B2, “Bivalent thrombin binding molecules comprising linkers” (National Research Council of Canada, priority 2004, dated 2011).

“And” between values parts separate entries of the source, which are not always exact repeats. Equal values may be shown once. Non-standard residues stand in square brackets, D forms with d. Primed or numbered codes have the meaning given here. No end group written: not given here. *: point of attachment. Benzenesulfonyl(4-tBu) = CC(C)(C)c1ccc(S(=O)(=O)*)cc1; dPip′ = not defined here

In experiment [1] the target is thrombin (Homo sapiens, UniProt P00734). The settings on record: cited from earlier work.
In experiment [2] the target is T1, CaCdc42 (R150K) (Candida albicans, UniProt P0CY33, R150K).
T1 construct: made in house; host or cells: E. coli BL21
Kind of experiment: Fluorescence titration of sNBD-labeled, GMPPCP-loaded CaCdc42 (R150K) with CRIB peptides. It counts as binding. The protocol:
In order to construct a bivalent peptide ligand for Candida Cdc42 (CaCdc42) (with a suitable linker) (FIG. 12), the binding affinities of component peptides derived from the CRIB domains of Candida Cla4 and Step 20 were determined. Residue K150 of the R150K CaCdc42 mutant was covalently modified with the fluorescent probe, sNBD (Molecular Probes, Eugene, Oreg.), essentially as described by Nomanbhoy and Cerione (Nomanbhoy, T. and Cerione, R. A., 1999, 15878-15884.). The stoichiometry of the fluorescent probe per protein molecule was estimated at 1.13, based on protein concentration determined with ε280nm=13,610 M^−1 cm^−1 (Gill, S. C. and von Hippel, P. H., 1989, 319-326), and using the absorbance of the sNBD moiety of ε463nm=22,000 M^−1 cm^−1. Interaction of the CRIB peptides with sNBD-labeled CaCdc42 was monitored using extrinsic fluorescence measurements with a Hitachi F-2500 fluorescence spectrophotometer. Samples of sNBD-labeled, activated CaCdc42 were added in the assay buffer (50 mM phosphate, pH 6.8, 50 mM NaCl and 5 mM MgCl2) to a cuvette being continuously stirred. The protein concentration was 1 μM. Individual CRIB peptide dissolved in the same assay buffer was added drop-wise to the cuvette. The mixture was excited at 488 nm with an excitation slit width of 5 nm. The emission spectra were scanned from 510 nm to 590 nm. The fluorescence emission intensity at the emission maximum 545 nm was determined from each spectrum and the final value was obtained by averaging the values from five scans of the same sample. […]
The Kd values for the binding of the CRIB peptides to sNBD-labeled activated CaCdc42 were determined by fitting the fluorescence titration data to a simple bimolecular association model as described by Leonard et al (Leonard, D. A., and others, 1997, 1173-1180). […]
[formula] The fluorescence intensity (F) is related to the dissociation constant, Kd as follows,
[formula] where F0 and Ft are the fluorescence intensities at the starting and end points of the titration, respectively. […] Average Kd values were determined from multiple independent measurements.

Experiment [3] concerns the target T2, α-thrombin (Homo sapiens, UniProt P00734). The experiment is described as follows: Amidolytic assay of CaM-DTI and CaM-DTI2 (S-2238 or S-2366). The settings on record: Ca2+ up to 5 mM. Format: biochemical. Set-up: with a certain fixed concentration of α-thrombin (˜0.3 nM).
Procedure: Kinetics of thrombin-catalyzed hydrolysis of the chromogenic substrates S-2238 or S-2366 (Chromogenix) was followed by absorbance at 405 nm on a SpectraMax plate reader thermostated at 37° C. The concentration of the substrate was 400 μM. Inhibition assays were performed in the clotting buffer with a certain fixed concentration of α-thrombin (˜0.3 nM) such that linear progress curves were observed within at least 15 min in the absence of the inhibition. The total volume of the reaction mixture was 200 μl. […] Kinetics data from initial rate experiments were used to construct Lineweaver-Burke plot; i.e. the relationship of (substrate concentration)^−1 versus (initial velocity)^−1 which were analysed by linear regression with MicroCal Origin 6.0 program (MicroCal, Md.). The Ki values of the inhibitors were determined using the equation Ki=[I]/{(SLo/SL1)−1}, where [I] is the inhibitor concentration, SLo is the slope of the reaction in the absence of inhibitors, and SL1 is the slope of the reaction in the presence of the inhibitor.
Kinetics of thrombin-catalyzed hydrolysis of the chromogenic substrate S-2366 (Chromogenix) was followed by absorbance at 405 nm on a SpectraMax plate reader at 25° C. The concentration of the substrate S-2366 was 50 μM. Inhibition assays were performed in the clotting buffer with a certain fixed concentration of α-thrombin (˜0.6 nM). […]
For experiment [4], the target named is T3, SH2 domain from the Grb4 adaptor protein (Mus musculus, UniProt O55033).
T3 sequence (O55033 285-379 limits assumed): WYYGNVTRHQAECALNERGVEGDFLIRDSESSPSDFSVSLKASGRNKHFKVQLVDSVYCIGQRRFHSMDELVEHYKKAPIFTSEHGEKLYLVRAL
Particulars: tyrosine-phosphorylated state; read-out: Affinity for the SH2 domain from Grb4; cited from earlier work.

For experiment [5], the target named is anti-c-myc antibody 9E10. Particulars: read-out: Affinity for anti-c-myc antibody 9E10; cited from earlier work.
The nature of experiment [6]: Calcium binding followed by proton NMR. Particulars: CaCl2 titration, pH 5.5. Here is the method: Looking at the results in FIG. 6, panels a, b, c, d show changes in the proton NMR spectra of Ac-[…]NH2 (SEQ. ID. NO. 109) (P3230, panels a, b) and Ac-[…]NH2 (SEQ. ID. NO. 110) (P3231, panels c, d) upon the addition to the initial ˜450 μL of the corresponding peptide in 20 mM sodium acetate-d3 buffer, pH 5.5, containing 10% D2O, of 1 μL (final CaCl2 concentration ˜0.22 mM), additional 2 μL (final CaCl2 concentration ˜0.66 mM), additional 10 μL (final CaCl2 concentration ˜2.8 mM) of 100 mM CaCl2, and additional 10 μL (final CaCl2 concentration ˜23.9 mM) of 1 M CaCl2. Panels e and f show changes in the proton NMR spectrum of a disulfide-linked peptide Bbs-Arg-(D-Pip)-Gly-Cys . . . […](SEQ. ID. No. 16) upon the addition to the initial volume of ˜450 μL of 1 μL (final CaCl2 concentration ˜0.22 mM), additional 2 μL (final CaCl2 concentration ˜0.66 mM) of 100 mM CaCl2, and additional 10 μL (final CaCl2 concentration ˜22.2 mM) of 1 M CaCl2.
An inhibitor with a linker known to bind specific metal ions will be affected by the presence of these ions in solution. Two peptides homologous to the calcium-binding loop of troponin C were designed and established that they bind calcium ions in solution. The peptides have the following sequences—Ac-[…]NH2 (P3230) (SEQ. ID. NO. 109) and Ac-[…]NH2 (P3231) (SEQ. ID. NO. 110). The peptides were synthesized, purified and their identity was confirmed as described in Example 1. They were tested for calcium binding by use of NMR. For this both freeze-dried peptides were reconstituted at a concentration of approximately 0.5 mM in 20 mM sodium acetate-d3 buffer, pH 5.5, containing 10% D2O. Proton spectra of the peptides were recorded at 800 MHz, 15° C., before and after addition of increasing amounts of 0.1 and 1 M stock solutions of CaCl2 in the same buffer. FIGS. 6a,b,c,d show changes in the proton NMR spectra of these two peptides upon the addition to the initial volume of ˜450 μL of 1 μL (final CaCl2 concentration ˜0.22 mM), additional 2 μL (final CaCl2 concentration ˜0.66 mM), additional 10 μL (final CaCl2 concentration ˜2.8 mM) of 100 mM CaCl2, and additional 10 μL (final CaCl2 concentration ˜23.9 mM) of 1 M CaCl2. The changes in the spectra confirm binding of calcium with affinity in mM range.
One of the two designed peptides was used to construct a calcium-responsive bivalent thrombin inhibitor. The disulfide-linked bivalent thrombin inhibitor (corresponding to SEQ. ID. NO. 91) prepared by cross-oxidation of cysteine thiol groups from two peptides Bbs-Arg-(D-Pip)-Gly-Cys (SEQ. ID. NO. 4) and […](SEQ. ID. NO. 114) (preparation described in Example 1) was tested for its ability to bind calcium and inhibit amidolytic reaction in the presence and absence of calcium. […]

For experiment [7], the target named is T2, α-thrombin. Kind of experiment: Effect of calcium on inhibition of the amidolytic activity of thrombin (S-3266). Particulars: 50 and 100 mM calcium, 0.6 nM thrombin, 25° C. It counts as biochemical. Set-up: chromogenic substrate proteolysis by human α-thrombin.

T1 sequence (P0CY33 1-178 R150K): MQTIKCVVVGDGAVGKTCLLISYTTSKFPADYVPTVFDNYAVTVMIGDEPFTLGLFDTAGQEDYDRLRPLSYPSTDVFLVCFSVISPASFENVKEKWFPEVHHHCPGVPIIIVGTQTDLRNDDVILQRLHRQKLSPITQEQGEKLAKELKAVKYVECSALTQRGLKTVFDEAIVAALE

For the substance “Bbs-Arg-(D-Pip)-Gly ({Benzenesulfonyl(4-tBu)}-Arg-[dPip′]-Gly) [H1]”, in experiment [1] (monovalent moiety alone), the “KI of the constituent binding moiety” value is “low μM range”.

On to “EVNIKISTPFNAKHLAHVGIDDNGNFTGLPDTWKSLLQHSKIT [mCst20-cCla4]”, for which, in experiment [2], the Kd was 2.64 ± 0.2 µM.

With “Ile-Arg-Phe-Thr-Asp-Gly-Glu-Gly-(CamCKK)-Asp-Phe-Glu-Glu-Ile-Pro-Glu-Glu-Tyr-Leu-Gln [CaM-DTI2]”, in experiment [3], the “Effect of Ca2+ on inhibition of the thrombin active site” value is recorded as “not affected”.

In turn, “EVNIKISTPFNAKHLAHVGIDDNGSYTGLPIEWERLLSASGIT [eCst20]” showed a Kd in experiment [2] of 0.046 µM.

In experiment [2], “GGNSGFPGPINFTHKVHVGFDRKSLTIYAQVQKNFTGLPDTWKSLLQHSKIT [eCla4-SLAM, GGNSGFPGPINFTHKVHVGFDRKSLTIYAQVQKNFTGLPDTWKSLLQHSKIT]” displayed a Kd of 0.127 ± 0.07 µM.

As to “CPHYEKVSG [ephrinB2301-309, peptide derived from the ephrinB cytoplasmic tail]”, the Kd in experiment [4] is 0.2 µM.

Turning to EQKLISEEDL [c-myc sequence], in experiment [5], the Kd was about 0.5 µM.

What is called Ki is a measure of affinity in units of concentration, obtained from inhibition or displacement. On to “WDPRPQRHNDGDFEEIPEEYLQ [SEQ. ID. NO. 18]”, for which the Ki in experiment [1] (subject of another patent application, read-out: KI for thrombin inhibition) is ~0.017 µM and 0.017 µM.

As to “Bbs-Arg-(D-Pip)-Gly-Cys . . . Cys-Asp-Lys-Asn-Ala-Asp-Gly-Trp-Ile-Asp-Asn-Gly-Asp-Phe-Glu-Glu-Ile-Pro-Glu-Glu-Tyr-Leu-Gln (CDKNADGWIDNGDFEEIPEEYLQ; not fully specified (N-terminus); printed as Bbs-Arg-(D-Pip)-Gly-Cys . . . Cys-Asp-Lys-Asn-Ala-Asp-Gly-Trp-Ile-Asp-Asn-Gly-Asp-Phe-Glu-Glu-Ile-Pro-Glu-Glu-Tyr-Leu-Gln; also: N-terminal part Bbs-Arg-(D-Pip)-Gly-Cys . . . precedes Cys1, intervening residues not given here) [3243-3255]”, in experiment [6], the “Affinity of calcium binding” value is on record as “mM range”. Further, the “Effect of calcium on inhibition potency” value is listed as “altered inhibition” in experiment [7] (listed as SEQ. ID. NO. 91) and “decreased” in experiment [7] (listed as calcium-responsive disulfide-linked bivalent thrombin inhibitor).
